Test [1] relates to BI-2536-resistant clones of HCT-116 cells. The test is described as follows: Cell proliferation assay (WST1), LD50. Type of test: cell-based, human. (Tetrazolium assays rely on reduction of a dye to a coloured formazan, in cell work by metabolically active cells.)
The test system of test [2] is HCT-116 cells. The test is described as follows: Spindle phenotype with BI-2536 treatment. Type of test: cell-based, human.
The target in test [3] is PLK3 (Homo sapiens, UniProt Q9H4B4). The following applies: cited from earlier work.
Test [4] deals with HCT-116 cells (parental). Description: Cell proliferation assay (WST1), LD50. Type of test: cell-based, human.
In test [5] the target is PLK2 (Homo sapiens, UniProt Q9NYY3). The following applies: cited from earlier work.
Test [6] relates to BI-2536-resistant clones of HCT-116 cells. Description: Spindle phenotype with BI-2536 treatment. Type of test: cell-based, human.
Test [7] concerns related motor proteins. The settings on record: in vitro; cited from earlier work.
Test [8] has as its system bortezomib-resistant clones of HCT-116 cells. The settings on record: for LD50: Table 4, mean ± s.e.m., n = 3.
The test system of test [9] is hTERT-RPE1 cells stably expressing GFP-PSMB5 wild type or mutants. The test is described as follows: Proliferation assay, bortezomib treatment. Type of test: cell-based, human. The following applies: stable expression of GFP-tagged PSMB5 mutants.

“And” between values parts separate entries of the source, which are not always exact repeats. Identical values can stand only once. Like-named read-outs stand apart in the source and are kept apart here.

Chain of PLK3 (Q9H4B4 whole entry): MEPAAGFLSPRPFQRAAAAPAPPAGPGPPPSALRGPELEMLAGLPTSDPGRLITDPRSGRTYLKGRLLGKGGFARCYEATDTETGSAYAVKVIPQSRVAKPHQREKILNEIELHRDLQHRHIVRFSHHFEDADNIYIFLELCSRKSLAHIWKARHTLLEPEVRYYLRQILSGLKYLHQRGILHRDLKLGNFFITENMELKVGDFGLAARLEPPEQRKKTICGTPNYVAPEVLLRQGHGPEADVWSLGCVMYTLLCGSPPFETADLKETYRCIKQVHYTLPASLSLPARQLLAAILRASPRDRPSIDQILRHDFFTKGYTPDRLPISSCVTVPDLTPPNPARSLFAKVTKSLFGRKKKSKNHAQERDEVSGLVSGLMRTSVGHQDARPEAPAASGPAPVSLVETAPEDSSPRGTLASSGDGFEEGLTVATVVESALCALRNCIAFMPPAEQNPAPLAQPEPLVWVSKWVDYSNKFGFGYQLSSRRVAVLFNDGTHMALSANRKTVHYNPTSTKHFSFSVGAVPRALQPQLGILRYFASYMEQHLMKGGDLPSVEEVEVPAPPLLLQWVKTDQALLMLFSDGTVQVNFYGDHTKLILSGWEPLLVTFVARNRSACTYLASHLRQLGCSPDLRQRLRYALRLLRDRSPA
Chain of PLK2 (Q9NYY3 whole entry, species assumed): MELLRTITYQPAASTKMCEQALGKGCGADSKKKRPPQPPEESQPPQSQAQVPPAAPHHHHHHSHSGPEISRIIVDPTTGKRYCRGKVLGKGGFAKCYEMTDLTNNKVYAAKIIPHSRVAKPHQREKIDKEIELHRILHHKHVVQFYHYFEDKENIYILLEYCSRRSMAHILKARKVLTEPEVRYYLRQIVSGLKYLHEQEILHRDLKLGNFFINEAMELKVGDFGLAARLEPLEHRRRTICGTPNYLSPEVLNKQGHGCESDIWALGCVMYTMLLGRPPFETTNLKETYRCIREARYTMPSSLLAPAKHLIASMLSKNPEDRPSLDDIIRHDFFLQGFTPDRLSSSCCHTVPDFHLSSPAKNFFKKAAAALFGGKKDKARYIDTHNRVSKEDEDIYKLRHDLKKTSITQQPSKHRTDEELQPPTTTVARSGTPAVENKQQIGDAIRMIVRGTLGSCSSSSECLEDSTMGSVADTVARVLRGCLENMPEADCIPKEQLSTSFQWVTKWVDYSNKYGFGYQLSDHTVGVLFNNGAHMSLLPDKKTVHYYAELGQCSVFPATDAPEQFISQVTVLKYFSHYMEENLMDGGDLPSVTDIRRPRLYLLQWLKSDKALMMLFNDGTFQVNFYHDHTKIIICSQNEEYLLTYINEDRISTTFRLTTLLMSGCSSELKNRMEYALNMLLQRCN

With `CC[C@@H]1C(=O)N(C)c2cnc(Nc3ccc(C(=O)NC4CCN(C)CC4)cc3OC)nc2N1C1CCCC1` [BI-2536], the LD50 in test [1] (Example 1, Table 1, clone A, mean ± s.d.) came to 24.7 ± 5.9 nM; in test [1] (Example 1, Table 1, clone B, mean ± s.d.), 22.9 ± 5.3 nM; in [1] (Example 1, Table 1, clone C, mean ± s.d.) it was 12.6 ± 2.6 nM; in test [1] (Example 1, Table 1, clone D, mean ± s.d.), 27.6 ± 2.4 nM; in [1] (Example 1, Table 1, clone E, mean ± s.d.), 35.9 ± 9.9 nM; in [1] (Example 1, Table 1, clone F, mean ± s.d.), 33.4 ± 7.5 nM. For the same compound, the LD50 in test [1] (Example 2, Table 3, clone A, n = 3, mean ± s.d.) is on record as 34.9 ± 13.0 nM; in test [1] (Example 2, Table 3, clone B, n = 3, mean ± s.d.) it was 33.5 ± 2.6 nM; in test [1] (Example 2, Table 3, clone C, n = 3, mean ± s.d.), 27.2 ± 8.6 nM; in test [1] (Example 2, Table 3, clone D, n = 3, mean ± s.d.), 14.2 ± 7.8 nM; in test [1] (Example 2, Table 3, clone E, n = 3, mean ± s.d.), 21.1 ± 5.7 nM; in test [1] (Example 2, Table 3, clone F, n = 3, mean ± s.d.), 27.5 ± 13.3 nM. For the same compound, the LD50 in test [4] (Example 1, Table 1, parental HCT-116, mean ± s.d.) was 3.9 nM and 3.9 ± 1.0 nM; in test [4] (Example 2, Table 3, parental HCT-116, n = 3, mean ± s.d.), 3.9 nM and 3.9 ± 2.8 nM. Also, the normal bipolar spindles in test [2] is 11±3%. Also, the activity in vitro entry in [3] and in test [5] was “active” throughout. The compound also yielded a bipolar spindles in test [6] (BI-2536 treatment, drug-resistant clone B) of 46±4%. Also, the “reduction in bipolar spindles associated with BI-2536 treatment” value in test [6] (Example 1: clones A, B and C) was “suppressed”.

On to `c1ccc(C2(c3nc(-c4ccncc4)cs3)CC2)cc1` [PCTP, 4-(2-(1-phenylcyclopropyl)thiazol-4-yl)pyridine], for which the “selectivity over related motor proteins” value in test [7] is listed as “inhibit other related motor proteins”.

On to `N[C@@H](CSC(c1ccccc1)(c1ccccc1)c1ccccc1)C(=O)O` [STLC, S-trityl-L-cysteine], for which the “selectivity over related motor proteins” value in [7] is “selective”.

Turning to `CC(C)C[C@H](NC(=O)[C@H](Cc1ccccc1)NC(=O)c1cnccn1)B(O)O` [bortezomib], the LD50 in [8] (clone A) was 19.4 ± 6.7 nM; in [8] (clone B), 15.3 ± 6.2 nM; in [8] (clone C), 17.8 ± 6.0 nM; in test [8] (clone D), 17.2 ± 5.4 nM; in [8] (clone E), 41.5 ± 9.5 nM; in test [4] (Example 3, Table 4, parental HCT-116, mean ± s.e.m., n = 3) it was 6.3 ± 0.9 nM. Also, the LD50 in test [4] (HCT-116 cells, text of Example 3) came to 6.3±0.9 nm. Moreover, the “LD50 of resistant clones relative to parental cell line” value in test [8] (five clones with reduced bortezomib sensitivity, fold higher) is on record as 2.4-6.5 fold. Further, in test [9], the “effect of expression of PSMB5 M104V or A108T on bortezomib sensitivity” value was “suppressed bortezomib sensitivity”.

For `CC(=O)O[C@H]1C(=O)[C@@]2(C)[C@H]([C@H](OC(=O)c3ccccc3)[C@]3(O)C[C@H](OC(=O)[C@H](O)[C@@H](NC(=O)c4ccccc4)c4ccccc4)C(C)=C1C3(C)C)[C@]1(OC(C)=O)CO[C@@H]1C[C@@H]2O` [taxol], the “sensitivity of clones compared with parental cell line” value in test [1] (Example 1: clones A, B and C) is “less sensitive than the parental cell line”; in test [1] (Example 2: clones D, E and F, 20 nM (FIG. 11)) it was “less sensitive than the parental cell line”.

The values above are taken from patent US20140039803A1, “Method for Rapid Identification of Drug Targets and Drug Mechanisms of Action in Human Cells” (THE ROCKEFELLER UNIVERSITY, priority 2011, published 2014).
